Assays:
[1] = system: Mycobacterium tuberculosis Erdman (autoluminescent); assay: FIC90 (Loewe) at 90% inhibition (log2); higher = more antagonistic
Protocol: (§1)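 DiaMOND equipotent two-drug combination dose responses against autoluminescent M. tuberculosis Erdman in 8 in vitro models. Read-out is OD600, or luminescence for the intracellular and dormancy models, normalised to untreated wells. Hill-fit Einf, AUC25 and GRinf are potency metrics; FIC50 and FIC90 are Loewe-additivity fractional inhibitory concentrations, given as log2 (negative = synergy). Replicates are averaged.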

[2] = system: Mycobacterium tuberculosis Erdman (autoluminescent); assay: FIC50 (Loewe) at 50% inhibition (log2); higher = more antagonistic
Protocol: as §1

[3] = system: Mycobacterium tuberculosis Erdman (autoluminescent); assay: Einf, fitted maximum growth inhibition of combination (fraction); higher = stronger maximal inhibition
Protocol: as §1

[4] = system: Mycobacterium tuberculosis Erdman (autoluminescent); assay: AUC25, normalised area under dose response up to IC25 (fraction (0-1)); higher = more potent at low dose
Protocol: as §1

[5] = system: Mycobacterium tuberculosis Erdman (autoluminescent); assay: GRinf, maximum normalised growth rate inhibition (unitless (-1 to 1)); higher = less effect (negative = killing)
Protocol: as §1

CC(C)/N=c1\cc2n(-c3ccc(Cl)cc3)c3ccccc3nc-2cc1Nc1ccc(Cl)cc1 [clofazimine] + NNC(=O)c1ccncc1 [isoniazid]
Settings | AUC25, [4] | Einf, [3] | FIC50, [2] | FIC90, [1] | GRinf, [5]
in vitro model: acidic pH 5.7, time point: constant (~7 days, model-specific) | 0.1 | 0.747 | 0.122 | – | 0.074
in vitro model: acidic pH 5.7, time point: terminal (~4-5 doublings, model-specific) | 0.0893 | 0.942 | 0.116 | 0.154 | -0.114
in vitro model: intracellular J774, time point: constant = terminal | – | 0.951 | – | 0.406 | -0.209

Settings | AUC25, [4] | Einf, [3] | FIC50, [2] | FIC90, [1] | GRinf, [5]
in vitro model: butyrate, time point: constant (~7 days, model-specific) | 0.0814 | 0.947 | 0.425 | 0.813 | -0.079
in vitro model: butyrate, time point: terminal (~4-5 doublings, model-specific) | 0.0801 | 0.988 | 0.35 | 0.54 | -0.117
in vitro model: cholesterol 0.05 mM, time point: constant (~7 days, model-specific) | 0.114 | 0.719 | 0.223 | – | -0.06
in vitro model: cholesterol 0.05 mM, time point: terminal (~4-5 doublings, model-specific) | 0.126 | 0.928 | 0.688 | 0.0937 | -0.181
in vitro model: cholesterol-high 0.2 mM, time point: constant (~7 days, model-specific) | 0.118 | 0.93 | 0.123 | -0.0588 | -0.856
in vitro model: cholesterol-high 0.2 mM, time point: terminal (~4-5 doublings, model-specific) | 0.106 | 0.999 | 0.197 | 0.419 | -0.882
in vitro model: dormancy (butyrate + nitrate, low O2), time point: constant (~7 days, model-specific) | 0.0958 | 0.92 | -0.176 | -0.0674 | 0.255
in vitro model: dormancy (butyrate + nitrate, low O2), time point: terminal (~4-5 doublings, model-specific) | 0.058 | 0.981 | -0.116 | -0.0457 | -0.0683
in vitro model: standard 7H9 glycerol, time point: constant = terminal | 0.105 | 0.964 | -0.0807 | 0.0617 | -0.146
in vitro model: valerate, time point: constant (~7 days, model-specific) | 0.144 | 0.925 | 0.0757 | 1.95 | -0.0991
in vitro model: valerate, time point: terminal (~4-5 doublings, model-specific) | 0.0841 | 0.937 | -0.0577 | 0.814 | 0.0302

CC(C)/N=c1\cc2n(-c3ccc(Cl)cc3)c3ccccc3nc-2cc1Nc1ccc(Cl)cc1 [clofazimine] + O=[N+]([O-])c1cn2c(n1)OC[C@@H](OCc1ccc(OC(F)(F)F)cc1)C2 [pretomanid]
Settings | AUC25, [4] | Einf, [3] | FIC50, [2] | FIC90, [1] | GRinf, [5]
in vitro model: acidic pH 5.7, time point: constant (~7 days, model-specific) | 0.134 | 0.778 | -0.0507 | – | -0.287
in vitro model: acidic pH 5.7, time point: terminal (~4-5 doublings, model-specific) | 0.108 | 0.974 | -0.167 | 0.503 | -0.285
in vitro model: intracellular J774, time point: constant = terminal | – | 0.997 | – | 0.0803 | -0.541

Settings | AUC25, [4] | Einf, [3] | FIC50, [2] | FIC90, [1] | GRinf, [5]
in vitro model: butyrate, time point: constant (~7 days, model-specific) | 0.117 | 0.967 | 0.464 | 1.35 | -0.167
in vitro model: butyrate, time point: terminal (~4-5 doublings, model-specific) | 0.111 | 0.995 | 0.356 | 1.26 | -0.159
in vitro model: cholesterol 0.05 mM, time point: constant (~7 days, model-specific) | 0.12 | 0.704 | 0.602 | – | 0.0886
in vitro model: cholesterol 0.05 mM, time point: terminal (~4-5 doublings, model-specific) | 0.132 | 0.919 | 0.632 | 0.298 | -0.123
in vitro model: cholesterol-high 0.2 mM, time point: constant (~7 days, model-specific) | 0.106 | 0.928 | 0.591 | 0.676 | -0.208
in vitro model: cholesterol-high 0.2 mM, time point: terminal (~4-5 doublings, model-specific) | 0.0964 | 1 | 0.631 | 0.816 | -0.69
in vitro model: dormancy (butyrate + nitrate, low O2), time point: constant (~7 days, model-specific) | 0.0762 | 0.892 | -0.213 | -1.07 | 0.195
in vitro model: dormancy (butyrate + nitrate, low O2), time point: terminal (~4-5 doublings, model-specific) | 0.0498 | 0.991 | -0.405 | -0.637 | -0.234
in vitro model: standard 7H9 glycerol, time point: constant = terminal | 0.116 | 0.964 | -0.193 | 0.585 | -0.211
in vitro model: valerate, time point: constant (~7 days, model-specific) | 0.136 | 0.884 | 0.762 | 1.18 | -0.0878
in vitro model: valerate, time point: terminal (~4-5 doublings, model-specific) | 0.097 | 0.925 | -0.0183 | 1.26 | -0.0377

CC[C@@H](CO)NCCN[C@@H](CC)CO [ethambutol] + CC(=O)NC[C@H]1CN(c2ccc(N3CCOCC3)c(F)c2)C(=O)O1 [linezolid]
Settings | AUC25, [4] | Einf, [3] | FIC50, [2] | FIC90, [1] | GRinf, [5]
in vitro model: acidic pH 5.7, time point: constant (~7 days, model-specific) | 0.0997 | 0.79 | 0.0133 | – | -0.243
in vitro model: acidic pH 5.7, time point: terminal (~4-5 doublings, model-specific) | 0.0783 | 0.957 | 1.24 | 0.495 | -0.168
in vitro model: intracellular J774, time point: constant = terminal | – | 0.948 | – | 0.585 | -0.511

Settings | AUC25, [4] | Einf, [3] | FIC50, [2] | FIC90, [1] | GRinf, [5]
in vitro model: butyrate, time point: constant (~7 days, model-specific) | 0.0872 | 0.88 | 0.492 | – | 0.121
in vitro model: butyrate, time point: terminal (~4-5 doublings, model-specific) | 0.0727 | 0.934 | 0.333 | 0.243 | 0.126
in vitro model: cholesterol 0.05 mM, time point: constant (~7 days, model-specific) | 0.151 | 0.741 | 0.049 | – | -0.189
in vitro model: cholesterol 0.05 mM, time point: terminal (~4-5 doublings, model-specific) | 0.155 | 0.952 | -0.615 | – | -0.325
in vitro model: cholesterol-high 0.2 mM, time point: constant (~7 days, model-specific) | 0.106 | 0.935 | 0.732 | – | -0.702
in vitro model: cholesterol-high 0.2 mM, time point: terminal (~4-5 doublings, model-specific) | 0.104 | 1 | 0.569 | 1.03 | -0.951
in vitro model: dormancy (butyrate + nitrate, low O2), time point: constant (~7 days, model-specific) | 0.125 | 0.811 | 0.653 | – | 0.461
in vitro model: dormancy (butyrate + nitrate, low O2), time point: terminal (~4-5 doublings, model-specific) | 0.106 | 0.943 | -0.181 | 0.335 | -0.432
in vitro model: standard 7H9 glycerol, time point: constant = terminal | 0.0844 | 0.892 | 0.485 | – | 0.15
in vitro model: valerate, time point: constant (~7 days, model-specific) | 0.091 | 0.817 | -0.233 | – | 0.187
in vitro model: valerate, time point: terminal (~4-5 doublings, model-specific) | 0.0651 | 0.909 | 0.293 | 0.0781 | 0.127

CC[C@@H](CO)NCCN[C@@H](CC)CO [ethambutol] + CO[C@H]1/C=C/O[C@@]2(C)Oc3c(C)c(O)c4c(O)c(c(/C=N/N5CCN(C6CCCC6)CC5)c(O)c4c3C2=O)NC(=O)/C(C)=C\C=C\[C@H](C)[C@H](O)[C@@H](C)[C@@H](O)[C@@H](C)[C@H](OC(C)=O)[C@@H]1C [rifapentine]
Settings | AUC25, [4] | Einf, [3] | FIC50, [2] | FIC90, [1] | GRinf, [5]
in vitro model: acidic pH 5.7, time point: constant (~7 days, model-specific) | 0.0932 | 0.893 | -0.302 | – | -0.289
in vitro model: acidic pH 5.7, time point: terminal (~4-5 doublings, model-specific) | 0.0462 | 0.985 | 0.0731 | -0.209 | -0.287
in vitro model: intracellular J774, time point: constant = terminal | – | 0.959 | – | -2.62 | -0.236

Settings | AUC25, [4] | Einf, [3] | FIC50, [2] | FIC90, [1] | GRinf, [5]
in vitro model: butyrate, time point: constant (~7 days, model-specific) | 0.0627 | 0.91 | 0.244 | – | 0.0321
in vitro model: butyrate, time point: terminal (~4-5 doublings, model-specific) | 0.0478 | 0.959 | 0.226 | -0.659 | 0.0099
in vitro model: cholesterol 0.05 mM, time point: constant (~7 days, model-specific) | 0.118 | 0.694 | 0.509 | – | -0.191
in vitro model: cholesterol 0.05 mM, time point: terminal (~4-5 doublings, model-specific) | 0.0857 | 0.889 | 0.404 | – | -0.163
in vitro model: cholesterol-high 0.2 mM, time point: constant (~7 days, model-specific) | 0.0262 | 0.944 | 0.734 | – | -0.482
in vitro model: cholesterol-high 0.2 mM, time point: terminal (~4-5 doublings, model-specific) | 0.0335 | 1 | 0.916 | 0.787 | -0.739
in vitro model: dormancy (butyrate + nitrate, low O2), time point: constant (~7 days, model-specific) | 0.103 | 0.855 | 0.28 | – | 0.366
in vitro model: dormancy (butyrate + nitrate, low O2), time point: terminal (~4-5 doublings, model-specific) | 0.119 | 0.99 | 0.137 | 0.579 | -0.485
in vitro model: standard 7H9 glycerol, time point: constant = terminal | 0.0363 | 0.939 | 0.0721 | -0.243 | -0.0574
in vitro model: valerate, time point: constant (~7 days, model-specific) | 0.0721 | 0.874 | 0.0991 | – | 0.0371
in vitro model: valerate, time point: terminal (~4-5 doublings, model-specific) | 0.034 | 0.935 | 0.275 | -0.509 | 0.0428
